In patent US20210346342A1, “COMBINATION OF AN UROLITHIN WITH AN IMMUNOTHERAPY TREATMENT” (Amazentis SA, priority 2019, published 2021):

Columns and labels:
[1] = tested on: AOM model of colorectal cancer; test: AOM model of colorectal cancer: lesion count/size (H&E) and anti-CD3 immunostaining of colonic mucosa; format: in vivo, mouse
Description: • A model of sporadic tumourigenesis can be obtained applying repetitively azoxymethane (AOM), without dextran sodium sulphate, to female wild-type FVB mice. In particular, tumours are induced by six weekly intraperitoneal injections of AOM (10 mg/kg) in wild type animals. Mice are analysed 18-24 weeks later. Urolithin A is applied in the diet at a dose of 50 or 200 mg/kg mouse a day (mpk), or control lab diet one week before starting the 6 injections of AOM, during the 6 weeks of injections with AOM, and for approximately 20 weeks following these injections, for a total of ca. 27-30 weeks. At the end of the treatment period, mice are euthanized by cervical dislocation for the collection of intestinal tissues.

[2] = tested on: APTK organoid xenograft tumours; test: APTK organoid model with depletion of CD8+ cytotoxic T cells by anti-CD8; format: in vivo, mouse; conditions: UA 200 mpk diet plus anti-CD8 150 μg i.p. every second day, FIG. 7
Description: For this model, C57/BL6 were maintained on a Urolithin A 200 mpk or control diet. One week after starting the dietary intervention, mice were transplanted subcutaneously with APTK organoids as described above. Starting at day 3, these mice received 5 intraperitoneal injections (150 μg every second day) of an anti-CD8 or isotype control antibody (BioXCell) to deplete CD8+ cytotoxic T cells. As in the previous experiments, tumour growth is measured by calliper measurements.

[3] = tested on: APTK organoid xenograft tumours; test: APTK organoid subcutaneous xenograft tumour model: tumour volume, CD3 and cleaved caspase 3 staining; format: in vivo, mouse
Source text: • Colorectal cancer organoids (from here on also referred to as APTK organoids) are generated by the selective introduction of tumourigenic mutation in the gene APC (A), p53 (P), Tgf-beta1 (T) and K-ras (K). Since APTK organoids have been developed on a C57/BL6 genetic background, they can be transplanted to generate tumours in wild type BL6 mice with an intact immune system that allows to study the immune response towards the developing tumour. One week prior to subcutaneous transplantation, the mice are fed either a Urolithin A-containing or control diet. Tumour growth is assessed by calliper measurements. The resulting tumours are analysed histologically.

[4] = tested on: APTK organoid xenograft tumours; test: APTK organoid model combined with anti-PD1 injections; format: in vivo, mouse; conditions: Urolithin A 200 mpk with isotype control antibody vs anti-PD1 200 μg i.p. every third day, FIG. 8
Description: • C57BL/6 mice are transplanted subcutaneously with APTK organoids as described in Example 2 and either, fed with a Urolithin A 200 mpk or control diet (initiated one week prior to subcutaneous injection) and receive 4 intraperitoneal injections (200 μg every third day, starting day 5) of a blocking anti-PD1 or isotype control antibody (BioXCell).

[5] = Pharmacokinetic profile of orally administered urolithin A; format: in vivo; conditions: 250 mg to 1000 mg urolithin A compared with 2000 mg
[6] = tested on: advanced, previously untreated non-small cell lung cancer; conditions: patients with advanced; cited from earlier work
[7] = tested on: previously treated, unresectable melanoma; conditions: patients with previously treated; cited from earlier work

Compound	number of lesions ([1]; UA 200 mpk in diet vs control diet, H&E of colonic tissue, FIG. 2)	CD3 positive cells in colonic mucosa ([1]; UA 200 mpk vs control, anti-CD3 immunostaining, FIG. 3)	size of lesions ([1]; UA treated animals vs control diet, FIG. 2)	anti-tumoural effect (tumour volume) when CD8+ cytotoxic T cells are abrogated [2]	tumour volume ([3]; UA 200 mpk diet vs control diet, calliper, FIG. 4)	CD3 positive cells at the invasive margin ([3]; UA 200 mpk vs control, FIG. 5)	CD3 positive cells inside the core of the tumours ([3]; UA 200 mpk vs control, FIG. 5)	cleaved Casp3 staining (marker of apoptosis) ([3]; UA 200 mpk vs control, FIG. 6)	tumour growth, Urolithin A alone versus anti-PD1 antibody treatment [4]	pharmacokinetic profile [5]	response rate [6] [%]	progression free survival [7]	response rate [7] [%]
O=c1oc2cc(O)ccc2c2ccc(O)cc12 [Urolithin A]	significantly decreases the number of lesions	tend to have more CD3 positive cells	appear to be of smaller size	anti-tumoural effect of UA is lost	significant lower tumour volume	less CD3 positive cells at the invasive margin	more CD3 positive cells inside the core of the tumours	significant increase of cleaved Casp3 staining	no difference was observed	surprisingly good pharmacokinetic profile	–	–	–
nivolumab	–	–	–	–	–	–	–	–	–	–	30	9.7 months	31
pembrolizumab: humanized monoclonal IgG4 antibody directed against human cell surface receptor PD-1	–	–	–	–	–	–	–	–	–	–	26	50 weeks	34
